This note sets out measurements from the CATMoS acute toxicity set (Mansouri et al. 2021).

What is called LD50 is the dose expected to kill half of the subjects tested. Lower therefore signals greater toxicity.

Series [1] can be described thus: GHS categories as the set defines them, by LD50: 1 up to 5, 2 up to 50, 3 up to 300, 4 up to 2000, 5 above 2000 mg/kg. Conditions: rat; in vivo; po.
Series [2] in a line: rat acute oral toxicity. Conditions: in vivo.

`Cc1ccc(S(=O)(=O)O)cc1` had a GHS category in series [1] of 5. This compound also came in with a median lethal dose (LD50) in series [2] of 400 mg/kg.

As to `CO[C@H]1/C=C/O[C@@]2(C)Oc3c(C)c(O)c4c(O)c(c(/C=N/N5CCN(C)CC5)c(O)c4c3C2=O)NC(=O)/C(C)=C\C=C\[C@H](C)[C@H](O)[C@@H](C)[C@@H](O)[C@@H](C)[C@H](OC(C)=O)[C@@H]1C`, in series [2], the LD50 worked out at 900 mg/kg.

In series [2], `Cc1ccccc1NC(=N)NC(=N)N` came in with an LD50 of 800 mg/kg.

The compound `CN(C)C(=O)C(c1ccccc1)c1ccccc1` gave an LD50 in series [2] of 685 mg/kg.

Consider `c1ccc(OCC2CO2)cc1` (stereo not given), for which the LD50 in series [2] is 2500 mg/kg.

In turn, `O=P(Oc1ccccc1)(Oc1ccccc1)Oc1ccccc1` came in with a 50% lethal dose (LD50) in series [2] of 3500 mg/kg.

For `CC[Si](Cl)(Cl)CC`, the LD50 in series [2] is 600 mg/kg.

The compound `O=C=Nc1ccc(Cl)c(Cl)c1` yielded a 50% lethal dose (LD50) in series [2] of 91 mg/kg.

With `ClC(Cl)C(Cl)Cl`, in series [2], the LD50 came out at 200 mg/kg.

`O=C1OC(=O)c2cccc3cccc1c23` displayed an LD50 in series [2] of 9600 mg/kg.

Take `S=c1sc2nc3ccccc3nc2s1`: the 50% lethal dose (LD50) in series [2] amounted to 1800 mg/kg.

`CCCCCCC(=O)O`: the LD50 in series [2] was 7000 mg/kg.

With `CS(=O)(=O)Cl`, the LD50 in series [2] came out at 50 mg/kg.

For the compound `CCCCCC(C)OC(=O)COc1ccc(Cl)c2cccnc12` (stereo not given), in series [2], the median lethal dose (LD50) turned out to be 1100 mg/kg.

For `CC(=O)C1=C(C)[C@@H]2C[C@@]3(C1)[C@H](C)CC[C@H]3C2(C)C`, the LD50 in series [2] was found to be 4500 mg/kg.

In series [2], `CC(C)c1ccc(-c2ccccc2)cc1` came in with a 50% lethal dose (LD50) of 4570 mg/kg.

For the compound `O=C1NS(=O)(=O)c2ccccc21`, the LD50 in series [2] stood at 8820 mg/kg.

Consider `Cc1ccccc1OCC1CO1` (stereo not given), for which, in series [2], the LD50 was 2800 mg/kg.

On to `Cc1ccc(S(C)(=O)=O)cc1[N+](=O)[O-]`, for which the LD50 in series [2] was 933 mg/kg.

With `ClC1=C(Cl)C2(Cl)C3C(Cl)C=CC3C1(Cl)C2(Cl)Cl` (stereo not given), in series [2], the 50% lethal dose (LD50) was 40 mg/kg.

For `CC(O)CC(C)(C)O` (stereo not given), the LD50 in series [2] was 3700 mg/kg.

In turn, `CC(=O)c1cc2c(cc1C)C(C)(C)C(C)CC2(C)C` (stereo not given) yielded a 50% lethal dose (LD50) in series [2] of 920 mg/kg. This LD50 is about 4-fold lower than that of the compound before.

As for `O=[N+]([O-])c1ccc(Cl)cc1Cl`, the LD50 in series [2] came out at 379 mg/kg.

`O=C=Nc1ccc(OC(F)(F)F)cc1` showed an LD50 in series [2] of 1520 mg/kg.

With `Nc1ccc(Cl)cc1`, the 50% lethal dose (LD50) in series [2] came out at 300 mg/kg.

The compound `CCCCOCC1CO1` (stereo not given) yielded an LD50 in series [2] of 1660 mg/kg.

Turning to `ClC(Br)Br`, the median lethal dose (LD50) in series [2] was 370 mg/kg. This LD50 is about 4.5-fold lower than that of the compound before.

For `CC(C)C(=O)c1ccccc1`, in series [2], the LD50 was determined as 1950 mg/kg.

In series [2], `CCN(CC)C(=O)c1cccc(C)c1` had a median lethal dose (LD50) of 1950 mg/kg.

As to `C[C@H]1OC(=O)[C@@H](C)OC1=O`, the LD50 in series [2] was found to be 3540 mg/kg.

In series [2], `O=S1(=O)CCCC1` had an LD50 of 1970 mg/kg.

In the case of `O=C(O)C1(C(=O)Nc2ccc(Cl)cc2Cl)CC1`, in series [2], the LD50 is 208 mg/kg.

For `CCCCC(=O)O`, in series [2], the 50% lethal dose (LD50) was determined as 1060 mg/kg.

With `O=C(O)c1cc2ccccc2cc1O`, in series [2], the LD50 amounted to 809 mg/kg.

Take `CC(CCl)OC(C)CCl` (stereo not given): the 50% lethal dose (LD50) in series [2] amounted to 240 mg/kg.

Turning to `COP(=S)(OC)SCC(=O)N(C)C=O`, the 50% lethal dose (LD50) in series [2] is 218 mg/kg.

`CCCCC(CC)C(=O)O` (stereo not given) yielded an LD50 in series [2] of 2040 mg/kg.

As to `CCNc1nc(Cl)nc(NC(C)C)n1`, the LD50 in series [2] was found to be 1870 mg/kg.

Compound `CNC(=O)ON=C(SC)C(=O)N(C)C` displayed an LD50 in series [2] of 2.5 mg/kg.

In series [2], `CC(C)=CC1C(C(=O)OCc2coc(Cc3ccccc3)c2)C1(C)C` (stereo not given) showed an LD50 of 1240 mg/kg.

In series [2], `Cc1ccc(Nc2ccc(Nc3ccc(C)cc3)c3c2C(=O)c2ccccc2C3=O)cc1` gave a 50% lethal dose (LD50) of 3000 mg/kg. Against the preceding compound, the LD50 is about 2.4-fold higher.

In the case of `CCOC(=O)c1ccc(O)cc1`, the LD50 in series [2] is 4300 mg/kg.

Regarding `N#Cc1ccccc1`, the LD50 in series [2] worked out at 700 mg/kg. This LD50 is about 6.1-fold lower than that of the compound before.

For `O=C(C=Cc1ccccc1)OCc1ccccc1`, the LD50 in series [2] worked out at 5380 mg/kg.

`CC/C=C\C#N` registered an LD50 in series [2] of 198 mg/kg.

In series [2], `CCCN(CC1CC1)c1c([N+](=O)[O-])cc(C(F)(F)F)cc1[N+](=O)[O-]` returned an LD50 of 1810 mg/kg.

Regarding `C=C(C)C(=O)OCc1ccccc1`, the median lethal dose (LD50) in series [2] was determined as 3980 mg/kg.

With `CC(C)(C)CC(C)(C)N`, the median lethal dose (LD50) in series [2] turned out to be 218 mg/kg.

In series [2], `CCCCO` gave an LD50 of 790 mg/kg. This LD50 lies about 3.6-fold higher than the previous one.
